In US20200009118A1, “COMPOSITIONS AND METHODS FOR THE TREATMENTOF NEURODEGENERATIVE AND OTHER DISEASES” (Glialogix, Inc., priority 2017, published 2020):

System: SOD1^G93A transgenic mice
Assay: Survival study in the SOD1 mouse model of ALS
Format: in vivo
Settings: for Observed Days, Total Days: whole cohort
Description: High-copy SOD1^G93A transgenic mice were derived from the B6SJL-TgN(SOD1G93A)1Gur strain, obtained from The Jackson Laboratory (Bar Harbor, Me.) and originally produced by Gurney, e.g. Gurney et al., Science 264: 1772-1775 (1994). Animal experiments with the SOD1 model were performed at ALS Therapy Development Institute (herein “ALS-TDI”; Cambridge, Mass.). All mice were genotyped to verify copy number of the SOD1 transgene. Animal handling and study protocols were as previously described by ALS-TDI, e.g. Scott et al., Amyotroph. Lateral Scler. 9: 4-15 (2008).
Groups were balanced with respect to gender and body weight within gender. In addition, groups were age-matched and littermate-matched. […] Each cohort of was balanced between males and females.
5 mL of 0.1 N NaOH was added and the tube gently sonicated. Approximately 140 μL of 1 N HCl was then added to bring the pH to 8.00. The resulting 20 mg/mL solution was delivered by intraperitoneal injection at 10 ml/kg. Vehicle treated mice were administered saline.
Neurological scores were assessed daily from day 50 for both hind legs. The neurological score was based on a scale of 0 to 4. Criteria used to assign each score level are from Scott et al., Amyotroph. Lateral Scler. 9: 4-15 (2008) and are described in Table 2.
The date of definitive neurological disease was the day that the mouse first scored a “2” on the Neurological Score. Upon reaching a score of Neurological Score of “4”, mice were euthanized and the date of death was recorded.
Survival after onset of definitive neurological disease is defined as the total number of days the mice lived after reaching definitive neurological disease (Neurological Score of 2) and before death (Neurological Score of 4). Survival after onset of definitive neurological disease was analyzed in two ways.
The first day that a neurological score was determined was day 50 of age; measurements were collected daily afterwards until death.
The three categories were: (1) days spent before definitive neurological disease, e.g. with a neurological score of 0 or 1; (2) days spent during definitive neurological disease, e.g. with a neurological score of 2 or 3; and (3) days at death, e.g. with a neurological score of 4. By definition, mice were only in the dead state for 1 day, as they were euthanized upon reaching a neurological score of 4; this category was included as a positive control to ensure the integrity of the data and analysis.

[1] = 200 mg/kg IP two times per day from age 50 days
[2] = Before definitive disease onset (neurological score = 0 or 1)
[3] = Definitive neurological disease (neurological score = 2 or 3)

In the case of `O=C(O)c1cc(/N=N/c2ccc(S(=O)(=O)Nc3ccccn3)cc2)ccc1O` [Sulfasalazine, 2-hydroxy-5-[(E)-2-{4-[(pyridin-2-yl)sulfamoyl]phenyl}diazen-1-yl]benzoic acid], the “Mean Day of Death” value (200 mg/kg IP two times per day) is reported as 132.6, the “Mean Day of Definitive Neurological Disease” value (200 mg/kg IP two times per day) is reported as 115.2 and the “Total Days of Survival after Onset of Definitive Disease” value (200 mg/kg IP two times per day) is reported as 17.4 days. For the same molecule, the “increase in median absolute survival” value [1] was 3.5 days, the increased absolute lifespan [1] was 2.7% and the “time of disease onset” value [1] was “no statistical effect”. The “increase in median absolute survival” value (200 mg/kg IP two times per day from age 50 days, listed as sulfasalazine formulation) was 3.7 days, the “effect on absolute survival, greater than riluzole” value (2.7% vs. […] increased absolute lifespan) was 68% and the “Observed Days Minus Expected Days” value [2] was -14 days. The “Observed Days, Total Days” value [2] was 1708 days, the “Observed Days Minus Expected Days” value (Death (neurological score = 4)) was 0 days and the “Observed Days, Total Days” value (Death (neurological score = 4)) was 27 days. The “Observed Days Minus Expected Days” value [3] was 112 days, the “Observed Days, Total Days” value [3] was 413 days and the “Observed Days Minus Expected Days” value (Total Observations (Days)) was 98 days. For the same molecule, the “Observed Days, Total Days” value (Total Observations (Days)) was 2148 days, the “Mean Day of Death, Absolute Change” value (vs. vehicle) was 3.7 and the “Mean Day of Death, Percent Change” value (vs. vehicle) was 2.9%. The “Mean Day of Definitive Neurological Disease, Absolute Change” value (vs. vehicle) was −1.2, the “Mean Day of Definitive Neurological Disease, Percent Change” value (vs. vehicle) was −1.0% and the “Total Days of Survival after Onset of Definitive Disease, Absolute Change” value (vs. vehicle) was 4.9 days. For the same molecule, the “Total Days of Survival after Onset of Definitive Disease, Percent Change” value (vs. vehicle) was 39.2% and the “Total Days of Survival after Onset of Definitive Disease, Percent Change” value (vs. vehicle, listed as Sulfasalazine formulation) was 39%.
